PMC5359596, “A new electro-optical approach for conductance measurement: an assay for the study of drugs acting on ligand-gated ion channels” (Scientific Reports, 2017)

Tests used:
Type in all cases: cell-based
P2RX7 receptor [1] = biological target: T1, P2RX7 receptor (Homo sapiens, UniProt Q99572); test: FLIPR (GCaMP2.1 calcium biosensor), HEK-293 expressing P2RX7; conditions: HEK-293_P2RX7, agonist
T1 construct: host or cells: HEK-293
T1 sequence (Q99572 1-595): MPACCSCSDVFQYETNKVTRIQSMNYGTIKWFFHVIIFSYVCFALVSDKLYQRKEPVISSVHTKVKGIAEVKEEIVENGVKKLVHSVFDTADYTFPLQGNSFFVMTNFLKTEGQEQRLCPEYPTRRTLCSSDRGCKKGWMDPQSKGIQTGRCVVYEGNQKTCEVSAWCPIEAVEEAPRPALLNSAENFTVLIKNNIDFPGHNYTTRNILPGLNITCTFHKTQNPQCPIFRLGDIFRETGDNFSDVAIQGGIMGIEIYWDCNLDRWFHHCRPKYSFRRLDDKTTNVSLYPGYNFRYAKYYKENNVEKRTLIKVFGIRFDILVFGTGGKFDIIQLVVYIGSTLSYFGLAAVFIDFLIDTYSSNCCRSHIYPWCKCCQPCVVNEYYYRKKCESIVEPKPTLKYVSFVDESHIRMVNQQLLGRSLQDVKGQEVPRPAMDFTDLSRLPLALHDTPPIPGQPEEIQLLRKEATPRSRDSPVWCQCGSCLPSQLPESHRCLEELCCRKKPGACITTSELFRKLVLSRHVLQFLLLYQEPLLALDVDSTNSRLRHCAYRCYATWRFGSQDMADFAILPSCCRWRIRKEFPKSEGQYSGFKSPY
Protocol: (§1) Intracellular calcium concentration was measured by: GCaMP2.1 calcium biosensor for P2RX7; Screen Quest™ Fluo-8 No. Wash Calcium Assay Kit (AAT Bioquest) for TRPV1; and Calcium Assay Kit (Molecular Devices) for TRPM2.
For the P2RX7 assay, cells were preincubated in Low Calcium, Magnesium free Tyrode’s Buffer.
Reference blockers were injected at FLIPRTetra instrument and fluorescence signal was recorded. After 10 minutes a second injection of reference activators was performed and fluorescence was measured.

P2RX7 receptor [2] = biological target: T1, P2RX7 receptor; test: ionChannelΩ conductance assay, HEK-293 expressing P2RX7; conditions: HEK-293_P2RX7, agonist
TRPM2 [3] = biological target: T2, TRPM2 (Homo sapiens, UniProt O94759); test: ionChannelΩ conductance assay, HEK-293 expressing TRPM2; conditions: HEK-293_TRPM2
T2 construct: host or cells: HEK-293
Protocol: (§2) Test current pulses (mono or biphasic) were administered to cells by parallel electrodes placed on the plane of the cells. Pulse length was several times the membrane time constant of the investigated cells in order to acquire images at a time of the pulse when plateau was fully established. Current intensity was set high enough to generate significant variations in the fluorescence signal, still avoiding membrane electroporation[35]. More specifically, a plot of the ΔFc/FRc values obtained at increasing current values was obtained: only current intensities giving correlative values lying on the linear part of the plot were used. […]
(§3) Images are processed off-line by a MATLAB-based Image Analysis program, developed in the laboratory, which offers the possibility to employ different filters, parameters and types of analysis in order to extract the data necessary to draw CRCs. […] More specifically, pixels were selected as part of the shape mask when the following requirements were met: to be part of the cell (recognition of object boundary from fluorescence signals); to be confined to the plasma membrane region (calculation of a ring of depth boundaries). […] In either case, mean values ± standard error (calculated from values obtained in the different sampling areas of the same well) were obtained at the various concentration of the drug and fitted by a nonlinear regression curve. […]

TRPM2 [4] = biological target: T2, TRPM2; test: FLIPR (Calcium Assay Kit), HEK-293 expressing TRPM2; conditions: HEK-293_TRPM2
Protocol: as §1

HeLa cells = test: Optical detection of plasma membrane resistance changes in HeLa cells (conventional microscope); conditions: increasing concentrations
From the text: Resistance (R) determines the magnitude of the passive changes observed in membrane potential in response to a constant current: the lower the resistance, the lower the membrane potential variation (Supplementary Figure 1). Accordingly, we investigated the possibility of using local membrane potential variations imposed by a test square current pulse to measure changes in membrane resistance. The variation of VSD fluorescence values during the current pulse, were quantified as ΔF, i.e. the difference between the plateau value reached during the electric stimulus (FS) and the pre-stimulus, resting, value (FR) (Supplementary Figure 1). ΔF values were further normalized to their respective resting values (ΔF/FR) to take into account even minimal variations of VSD fluorescence due to dye bleaching. […]
Images were processed off-line by an image analysis program developed in MATLAB (The MathWorks). […] Fluorescence intensity values were calculated as the mean of the values obtained in the selected ROIs within the 3 stimuli series administered in the different conditions (before and during the plateau phase of the pulse, in the absence and in the presence of a test compound). […]

hTRPV1 = biological target: T3, hTRPV1 (Homo sapiens, UniProt Q8NER1); test: ionChannelΩ electro-optical conductance assay, CHO-K1 expressing hTRPV1; conditions: scatter plot linear regression, highest capsaicin concentrations
T3 construct: host or cells: CHO-K1
T3 sequence (Q8NER1 whole entry): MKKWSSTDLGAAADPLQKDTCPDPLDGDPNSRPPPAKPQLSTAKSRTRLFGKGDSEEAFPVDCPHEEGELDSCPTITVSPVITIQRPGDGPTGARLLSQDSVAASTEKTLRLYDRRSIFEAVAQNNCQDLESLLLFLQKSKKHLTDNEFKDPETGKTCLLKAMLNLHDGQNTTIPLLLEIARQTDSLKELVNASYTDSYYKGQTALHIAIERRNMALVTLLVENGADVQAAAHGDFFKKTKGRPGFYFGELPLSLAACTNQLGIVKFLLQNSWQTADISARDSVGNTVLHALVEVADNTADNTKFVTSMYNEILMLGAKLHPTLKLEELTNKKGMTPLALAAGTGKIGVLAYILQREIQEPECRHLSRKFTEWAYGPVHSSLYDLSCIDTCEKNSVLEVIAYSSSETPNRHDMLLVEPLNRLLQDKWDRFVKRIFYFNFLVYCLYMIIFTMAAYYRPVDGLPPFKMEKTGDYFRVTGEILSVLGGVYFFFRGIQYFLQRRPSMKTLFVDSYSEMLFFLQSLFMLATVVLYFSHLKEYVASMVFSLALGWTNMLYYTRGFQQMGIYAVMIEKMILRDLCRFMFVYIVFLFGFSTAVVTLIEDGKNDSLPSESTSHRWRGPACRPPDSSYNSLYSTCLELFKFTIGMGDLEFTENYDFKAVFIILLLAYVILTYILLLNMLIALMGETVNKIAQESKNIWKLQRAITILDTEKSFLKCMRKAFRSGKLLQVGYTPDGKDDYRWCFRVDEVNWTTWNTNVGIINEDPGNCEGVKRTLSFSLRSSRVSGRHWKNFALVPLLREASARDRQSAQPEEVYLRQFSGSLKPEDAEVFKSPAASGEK
Protocol: as §2, §3

T2 sequence (O94759 whole entry): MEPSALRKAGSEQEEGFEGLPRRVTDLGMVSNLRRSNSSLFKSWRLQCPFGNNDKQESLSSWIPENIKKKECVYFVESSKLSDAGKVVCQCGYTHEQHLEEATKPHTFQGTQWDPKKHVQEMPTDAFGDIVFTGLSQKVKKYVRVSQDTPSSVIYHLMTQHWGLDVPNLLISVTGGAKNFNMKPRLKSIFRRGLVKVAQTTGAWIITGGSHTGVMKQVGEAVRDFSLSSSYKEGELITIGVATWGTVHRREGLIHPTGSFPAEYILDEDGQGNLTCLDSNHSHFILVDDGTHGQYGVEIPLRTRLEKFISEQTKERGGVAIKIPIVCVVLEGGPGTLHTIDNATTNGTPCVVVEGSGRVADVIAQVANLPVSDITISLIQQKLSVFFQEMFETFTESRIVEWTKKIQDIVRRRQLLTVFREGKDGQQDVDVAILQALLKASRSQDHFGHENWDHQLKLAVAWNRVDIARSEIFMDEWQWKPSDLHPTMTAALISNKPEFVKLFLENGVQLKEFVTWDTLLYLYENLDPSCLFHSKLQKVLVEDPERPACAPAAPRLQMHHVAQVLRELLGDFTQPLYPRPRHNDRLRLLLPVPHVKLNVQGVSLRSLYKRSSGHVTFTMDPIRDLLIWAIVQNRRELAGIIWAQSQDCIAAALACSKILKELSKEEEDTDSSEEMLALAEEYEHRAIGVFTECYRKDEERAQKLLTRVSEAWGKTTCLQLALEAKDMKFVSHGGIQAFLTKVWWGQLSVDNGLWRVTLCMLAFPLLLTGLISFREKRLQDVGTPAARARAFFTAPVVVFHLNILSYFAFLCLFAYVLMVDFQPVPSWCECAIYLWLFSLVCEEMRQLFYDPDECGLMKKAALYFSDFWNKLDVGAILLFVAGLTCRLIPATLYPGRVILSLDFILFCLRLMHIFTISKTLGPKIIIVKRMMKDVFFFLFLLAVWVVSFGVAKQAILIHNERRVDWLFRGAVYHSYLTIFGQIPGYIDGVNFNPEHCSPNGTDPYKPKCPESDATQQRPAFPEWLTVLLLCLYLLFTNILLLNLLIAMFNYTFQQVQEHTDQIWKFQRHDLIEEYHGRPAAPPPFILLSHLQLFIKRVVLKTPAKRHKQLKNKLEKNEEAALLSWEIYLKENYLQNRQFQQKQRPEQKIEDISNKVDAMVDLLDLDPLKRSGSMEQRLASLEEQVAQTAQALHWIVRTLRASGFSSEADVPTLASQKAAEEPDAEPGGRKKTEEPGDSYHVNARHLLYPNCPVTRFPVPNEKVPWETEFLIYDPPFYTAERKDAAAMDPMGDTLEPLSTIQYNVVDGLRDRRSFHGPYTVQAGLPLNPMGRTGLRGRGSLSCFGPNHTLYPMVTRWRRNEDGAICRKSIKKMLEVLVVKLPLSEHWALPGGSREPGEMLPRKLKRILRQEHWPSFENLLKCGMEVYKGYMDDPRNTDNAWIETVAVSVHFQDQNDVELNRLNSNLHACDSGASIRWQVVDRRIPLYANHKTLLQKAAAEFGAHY

2′(3′)-O-(4-Benzoylbenzoyl)adenosine 5′-triphosphate triethylammonium salt [BzATP]
EC50 (P2RX7 receptor [1]): 6.35 µM | EC50 (P2RX7 receptor [2]): 3.4 µM

COC1=C(N)C(=O)c2nc(-c3nc(C(=O)O)c(C)c(-c4ccc(OC)c(OC)c4O)c3N)ccc2C1=O [streptonigrin]
EC50 (TRPM2 [3]): 14.1 µM | EC50 (TRPM2 [4]): 4.3 µM

Streptolysin-O: bacterial protein able to insert into the eukaryotic plasma membrane and form non-selective ion pores
VSD responses to electric square pulses (membrane resistance) (HeLa cells): progressively reduced in amplitude

COc1cc(CNC(=O)CCCC/C=C/C(C)C)ccc1O [capsaicin]
unitary slope resistance, final value at increasing concentrations (hTRPV1): ~20 % of control
